Measured values reported in paper PMC8176454, “Synthesis and Assessment of Novel Probes for Imaging Tau Pathology in Transgenic Mouse and Rat Models” (ACS Chemical Neuroscience, 2021).
Each block holds one compound with its values, some of them ahead of it.

Key:
[1] = test system: tau aggregates in DRG neurons from P301S tau mice; assay: Fluorescence binding to cultured DRG neurons from P301S tau transgenic mice; type: cell-based, mouse; settings: IC50 could not be derived because of low affinity
Protocol: P301S tau mice with aggregated tau in the brain also express aggregated tau in DRG neurons.[24]−[26] […] To estimate the apparent affinity of LM229 to tau aggregates directly in living neurons, we imaged live neurons after 20 min incubation with various concentrations of LM229 (Figure 4A). […] LM229 binding was specific to neurons with aggregated tau, as detected with the AT100 antibody[18],[22],[23],[26] (Figure 4D). […] Although PBB3 also bound to DRG neurons with tau aggregates at 30–100 μM, it was not possible to derive an IC50 value because of its low affinity in this assay (Supporting Information, Figure S2). […] The shift from nanomolar to micromolar affinity between binding to heparin tau fibrils and tau aggregates in P301S tau neurons may reflect the different environment and assay conditions or the different conformations that tau aggregates assume in neurons compared to heparin–tau complexes.[27]
Neurons were prepared from phenotypic end stage 5–7 month old P301S tau mice and cultured as described previously.[24] For live staining, neurons cultured for 2 days were washed in PBS and incubated with various concentrations of LM229 for 20 min at room temperature. After three washes in PBS, neurons were imaged on a Leica DMI 4000B microscope using a DFC3000 G camera and application suite 4.0.0.11706. The dead cell stain Propidium iodide (1 μg/mL) was added to ensure that only live cells were imaged. Phase contrast images were taken to show viable neurons. For fixed cell staining, neurons were fixed for 20 min at room temperature in 4% paraformaldehyde, washed in PBS, and permeabilized in PBS containing 0.3% Triton X-100. LM299 was added as described for live cells, and cells were probed with AT100 (1:1000, MN1060) followed by anti-mouse AlexaFluor568 secondary antibody. Cultures were co-stained with the nuclear dye DAPI (blue) to reveal total cells. […]
Binding to cultured neurons from P301S tau transgenic mice
DRG were incubated with the indicated concentrations of LM229 or PBB3 for 20 minutes at room temperature, washed 3 times in PBS, and imaged on a Leica DMI 4000B microscope using a Leica DFC3000 G camera and the Leica application suite 4.0.0.11706. Fluorescence intensity was measured in 10-16 neurons each from 3 independent cultures using Image J (imagej.nih.gov/ij/). Results shown are mean ± SD. Non linear least squares curve fitting was applied using http://faculty.gvsu.edu/carlsont/232lab/nonlin2.html. No Km value was […]
Figure S2: Binding of LM229 and PBB3 to DRG neurons with tau aggregates […]
(1 picture or pasted object on this page, not shown here)

[2] = test system: 3R tau151-391 aggregates in cortical sections from SHR24 rats; assay: Binding to SHR24 transgenic rat brain sections; settings: SHR24 (3R) vs SHR72 (4R) brain tissue
Excerpt: (§1) Since future PET studies for development of these compounds would require kinetic modeling for their assessment in vivo, we tested their performance in tau transgenic rats. Rat brains and blood volumes are about 6- and 10-fold larger, respectively, than those of mice and thus enable higher resolution imaging and ample volume for repeated blood sampling. We used two transgenic rat lines expressing human-truncated tau comprising the proline-rich region and either three microtubule binding domains (3R tau151-391, SH24)[28] or four microtubule binding domains (4R tau151-391, SHR72).[29] […] However, compared to the SHR24 rat brain sections, there were less inclusions detected, which seems to indicate the compounds have preferential binding toward the three repeat forms of tau in these rat models.
(§2) Fresh frozen rat brain coronal sections (10 μm) were stored on slides at −80 °C until use. Sections were fixed in ice cold acetone for 10 min and air-dried and then rehydrated twice for 5 min with buffer (10 mM PBS with 0.1% Triton X-100) before application of 5% bovine serum albumin for 1 h and two more 5 min buffer washes. Primary monoclonal antibody AT8 (Thermo MN1020, 1:1000) was added overnight at 4 °C, followed by 1 h incubation with a mixture of secondary AlexaFluor555 goat anti-mouse antibody (1:1000) and 50 μM PBB3 or LM229 in 50:50 ethanol/buffer. Following two 5 min washes in buffer, the slides were air-dried and cover-slipped using Fluorsave before analysis. The green autofluorescence of PBB3 and LM229 was visualized using a 488 nm filter and fluorescence of AT8 using a 568 nm filter on a Leica DM6000 microscope.

[3] = target: T1, 3R tau151-391 aggregates in cortical sections from SHR24 rats (Homo sapiens, UniProt P10636); assay: Binding to SHR24 transgenic rat brain sections; settings: 50 μM, colocalization with AT8
T1 construct: tissue AXON Neuroscience; host or cells: brain (cortex) sections of SHR24 transgenic rats
Excerpt: as §1, §2

[4] = target: T2, heparin-induced synthetic recombinant tau fibrils (tau-441 human) (Homo sapiens, UniProt P10636); assay: Fluorescence quenching assay of compound binding to heparin-induced synthetic recombinant tau fibrils; settings: read-out: Kd of compound binding to heparin-induced synthetic tau fibrils determined by fluorimetry
T2 construct: purchased Eurogentec
Protocol: All compounds were assessed for their ability to bind to synthetic recombinant tau fibrils using a fluorescence quenching assay[20] […] Binding affinities for some compounds (141, 164, 166, 169, 171, and 207) could not be assessed with this assay because of negligible changes in fluorescence intensity. […] This compound was then selected for further characterization and development.
All reagents and solvents were used as supplied or purified using standard procedures as necessary. Analytical separation was conducted on an Ultimate 3000 HPLC system (Thermo Scientific). [^11C]CO2 was produced via the ^14N(p,α) nuclear reaction using GE PETtrace cyclotron applying 16.5 MeV protons onto 0.5% oxygen in nitrogen gas. [^11C]Methyl iodide was synthesized on a GE Medical Systems MeI MicroLab. A F-4500 FL spectrophotometer (Chemical Engineering department, University of Cambridge) was used to do fluorescence scan of all of the compounds mixed with tau fibrils. Excitation wavelength was 365 nm, and emission was scanned from 400 to 600 nm. With parameters, setting excitation slit was 5.0 nm, emission slit was 20.0 nm, PMT voltage was 950 V, and response was 0.5 s.
Monomeric tau (tau-441 human) lyophilized powder was obtained from Eurogentec. Tau monomers (100 μM) were prepared in 20 mM BES buffer (pH 7.4 with 25 mM NaCl and 2 mM dithiothreitol and incubated at 56 °C for 10 min. After being cooled to room temperature in a water bath, heparin (25 μM) and a protease inhibitor mix were added and incubated at 37 °C for 10 days. […]
Binding affinity of all compounds with tau fibrils […]
All other compounds binding affinit ies towards tau fibrils
were then tested by fluorescent binding assay. […]

tau fibrils = target: tau fibrils; set-up: method as in PMID 28087578; settings: read-out: Kd, previously reported value; cited from earlier work
[5] = target: T3, tau aggregates in brain of P301S tau mice (Homo sapiens, UniProt P10636, P618S); assay: Ex vivo mouse study: i.v. injection, brain sections imaged after 1 h; type: in vivo; settings: i.v. injection 1 h prior, colocalization with AT8
T3 construct: from tissue; host or cells: brain of transgenic P301S tau mice (C57Bl/6 background)
Protocol: We next looked at the ability of LM229 to cross the blood–brain barrier (BBB), a key property of any viable neuro-radiotracer. LM229 was injected intravenously (i.v.) (1 mg/kg weight), and after 1 h, WT and P301S tau mice were perfused-fixed and brain sections were imaged under a fluorescence microscope. […] However, we await a comparison of PBB3 and LM229 by PET imaging to determine their relativity properties as in vivo imaging probes.
Mice were injected intravenously (i.v.) with 50 μM LM229 or PBB3 (DMSO) diluted in 50:50 ethanol/PBS. Animals were then perfused (4% PFA) 1 h post-i.v.

[6] = target: T4, 4R tau151-391 aggregates in brainstem sections from SHR72 rats (Homo sapiens, UniProt P10636); assay: Binding to SHR72 transgenic rat brain sections; settings: 50 μM, colocalization with AT8
T4 construct: tissue AXON Neuroscience; host or cells: brain (brainstem) sections of SHR72 transgenic rats
Excerpt: as §1
Fresh frozen rat brain coronal sections (10 μm) were stored on slides at −80 °C until use. Sections were fixed in ice cold acetone for 10 min and air-dried and then rehydrated twice for 5 min with buffer (10 mM PBS with 0.1% Triton X-100) before application of 5% bovine serum albumin for 1 h and two more 5 min buffer washes. […] The green autofluorescence of PBB3 and LM229 was visualized using a 488 nm filter and fluorescence of AT8 using a 568 nm filter on a Leica DM6000 microscope.

[7] = In vivo PET studies in wild-type and P301S tau mice; set-up: species or system mouse; settings: for Maximum brain uptake (%ID/g max): whole brain
Excerpt: We then performed preliminary in vivo PET studies with [^11C]L229 in both WT and transgenic P310S tau mice. […] Further PET studies are required to fully characterize the in vivo pharmacokinetics of the radiotracer in both mice and rats.
These studies were regulated under the Animals (Scientific Procedures) Act 1986 Amendment Regulations 2012 following ethical review by the University of Cambridge Animal Welfare and Ethical Review Body (AWERB). The mice were anesthetized with 5% isoflurane, and general anesthesia was maintained using 1.5% isoflurane. The anesthetized mice were placed prone on the bed of a microPET Focus-220 scanner (Concorde Microsystems, Knoxville, TN). Body temperature was maintained at 37 °C using a heating blanket connected to a rectal thermistor probe. Blood oxygen saturation as well as heart rate and breathing rate were monitored and maintained within normal limits using a noninvasive mouseOX pulse-oximeter sensor (Starr Life Science Corp., Oakmont, PA) attached to the thigh. Before the injection of a tracer, a transmission scan was performed with a 68Ge point source for attenuation and scatter correction of 511 keV photons. [^11C]LM229 was injected via the tail vein over 30 s, followed by a 15 s heparin–saline flush. Dynamic data were acquired in list mode for 90 min. Data were subsequently Fourier rebinned in following time frames: 12 × 5 s, 6 × 10 s, 3 × 20 s, 4 × 30 s, 5 × 60 s, 10 × 120 s, 12 × 5 min. Corrections were applied for randoms, dead time, normalization, attenuation, and decay. Fourier rebinning was used to compress the 4D sinograms to 3D before reconstruction with a 2D-filtered back projection with a Hann window cutoff at the Nyquist frequency. The image voxel size was 0.95 × 0.95 × 0.80 mm, with an array size of 128 × 128 × 95.
Three-dimensional volumes of interest (VOIs) for mice brain MRI template available on PMOD software (version 3.8; PMOD technologies, Zurich, Switzerland) were modified to obtain a whole brain VOI. […] The results were expressed as % injected dose per gram, assuming a specific gravity of 1 g·mL^–1 for brain tissue.

[8] = test system: tau pathology in PS19 tau transgenic mice; set-up: method as in PMID 24050400; settings: cited from earlier work
[9] = test system: brainstem of P301S tau mice; set-up: method as in PMID 29930508; settings: P301S tau mice vs WT; cited from earlier work
[10] = test system: tau tangles in transgenic mice expressing mutant human P301L tau; set-up: method as in PMID 27030397, PMID 23411393; settings: in vitro and microPET in vivo imaging; cited from earlier work

T2 sequence (P10636 1-441 isoform P10636-8): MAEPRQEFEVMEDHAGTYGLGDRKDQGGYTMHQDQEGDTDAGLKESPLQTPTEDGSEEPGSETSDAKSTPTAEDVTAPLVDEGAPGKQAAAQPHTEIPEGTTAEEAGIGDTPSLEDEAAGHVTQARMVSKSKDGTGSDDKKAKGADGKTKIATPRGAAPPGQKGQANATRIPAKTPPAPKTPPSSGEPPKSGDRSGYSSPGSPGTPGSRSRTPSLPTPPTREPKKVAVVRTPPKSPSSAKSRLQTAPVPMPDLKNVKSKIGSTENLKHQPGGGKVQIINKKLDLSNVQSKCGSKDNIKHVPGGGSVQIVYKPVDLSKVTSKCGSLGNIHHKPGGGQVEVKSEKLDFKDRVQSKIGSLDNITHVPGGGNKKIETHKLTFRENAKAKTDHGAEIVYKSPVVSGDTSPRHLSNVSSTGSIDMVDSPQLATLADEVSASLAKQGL
T1 sequence (P10636 151-360 isoform P10636-5): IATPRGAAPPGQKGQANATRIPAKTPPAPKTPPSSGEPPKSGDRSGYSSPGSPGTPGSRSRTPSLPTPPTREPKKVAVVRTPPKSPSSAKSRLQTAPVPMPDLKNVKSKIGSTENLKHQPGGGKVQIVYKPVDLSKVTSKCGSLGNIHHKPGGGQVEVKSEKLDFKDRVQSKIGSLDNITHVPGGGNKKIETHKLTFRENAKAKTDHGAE
T3 sequence (P10636 1-383 isoform P10636-6 P243S): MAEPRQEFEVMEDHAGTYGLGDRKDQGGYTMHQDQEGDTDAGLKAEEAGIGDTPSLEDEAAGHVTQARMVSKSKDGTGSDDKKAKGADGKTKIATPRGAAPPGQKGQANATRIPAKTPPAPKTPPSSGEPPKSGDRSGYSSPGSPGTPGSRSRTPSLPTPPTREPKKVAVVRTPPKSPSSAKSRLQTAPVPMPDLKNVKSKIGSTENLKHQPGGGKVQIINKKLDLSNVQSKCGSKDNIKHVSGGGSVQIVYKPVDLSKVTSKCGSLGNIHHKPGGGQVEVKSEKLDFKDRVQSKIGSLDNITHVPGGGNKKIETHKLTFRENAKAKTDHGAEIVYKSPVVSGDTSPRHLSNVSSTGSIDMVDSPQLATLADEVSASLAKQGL
T4 sequence (P10636 468-708): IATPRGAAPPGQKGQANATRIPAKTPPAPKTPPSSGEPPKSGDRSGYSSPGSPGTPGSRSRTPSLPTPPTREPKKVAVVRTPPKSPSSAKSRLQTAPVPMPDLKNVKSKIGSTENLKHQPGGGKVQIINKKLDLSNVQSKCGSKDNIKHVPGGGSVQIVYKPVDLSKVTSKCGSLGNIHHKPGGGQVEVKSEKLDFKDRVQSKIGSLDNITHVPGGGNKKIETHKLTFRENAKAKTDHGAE

- Kd [4]: 1.4 nM
- Ex vivo binding in P301S tau brain tissue [5]: significant nonspecific binding
SMILES: CNc1ccc(/C=C/C=C/c2nc3ccc(O)cc3s2)cn1 [PBB3, reference compound]
- Concentration at which binding to DRG neurons with tau aggregates was seen [1]: 30 to 100 µM
- Preference between 3R and 4R tau inclusions in rat models [2]: preferential binding toward the 3R tau inclusions
- Binding to pathological aggregated tau in SHR24 rat brain sections [3]: bound with similar properties to pathological aggregated tau
- Kd (tau fibrils): 1.3 nM
- Binding to tau in SHR72 rat brain sections [6]: bound to tau in brain sections from SHR72 rats

SMILES: [11CH3]Nc1ccc(/C=C/C=C/c2nc3cc(F)c(O)cc3s2)cn1 [[^11C]LM229]
- Maximum brain uptake (%ID/g max) ([7]; P301S mouse): 2.38 %ID/g
- Time of maximum brain uptake ([7]; WT and P301S mice): within the first minute
- Maximum brain uptake (%ID/g max) ([7]; WT mouse): 1.56 %ID/g

SMILES: [11CH3]Nc1ccc(/C=C/C=C/c2nc3ccc(O)cc3s2)cn1 [[^11C]PBB3]
- Binding to tau pathology in PS19 tau transgenic mice [8]: bind to tau pathology

SMILES: [18F]c1ccc(-c2ccc3c(c2)[nH]c2ccncc23)cn1 [[^18F]T807]
- Difference in retention in brainstem compared to control WT mice [9]: no more than 23%
- Specific binding to tau tangles in P301L tau mice [10]: no specific binding

- Kd [4]: 56 nM
SMILES: Oc1ccc2nc(/C=C/C=C/c3ccc(F)nc3)sc2c1 [compound 148]
